# Experimental data taken from ChEMBL document CHEMBL5346903, “Discovery of novel and bioavailable histone deacetylases and cyclin-dependent kinases dual inhibitor to impair the stemness of leukemia cells” (Eur J Med Chem, 2023).
# Tests used:
# [1] = test system: U-937; experiment: Induction of differentiation in human U-937 cells assessed as increase in CD11b positive cells at 1.5 uM incubated for 48 hrs by FITC staining based flow cytometry (reference value: 2.72 %); format: functional
# [2] = test system: HL-60; experiment: Induction of apoptosis in human HL-60 cells assessed as necrotic cells at 0.2 uM incubated for 48 hrs by annexin V-FITC/PI satining based flow cytometry (reference value: 0.00 %); format: functional
# [3] = test system: U-937; experiment: Induction of apoptosis in human U-937 cells assessed as necrotic cells at 0.5 uM incubated for 48 hrs by annexin V-FITC/PI satining based flow cytometry (reference value: 1.96 %); format: functional
# [4] = biological target: T1, Histone deacetylase 2 (Homo sapiens, UniProt Q92769); experiment: Inhibition of recombinant human HDAC2 using HDAC substrate incubated for 30 mins by fluorescence based assay
# T1 sequence (Q92769 whole entry): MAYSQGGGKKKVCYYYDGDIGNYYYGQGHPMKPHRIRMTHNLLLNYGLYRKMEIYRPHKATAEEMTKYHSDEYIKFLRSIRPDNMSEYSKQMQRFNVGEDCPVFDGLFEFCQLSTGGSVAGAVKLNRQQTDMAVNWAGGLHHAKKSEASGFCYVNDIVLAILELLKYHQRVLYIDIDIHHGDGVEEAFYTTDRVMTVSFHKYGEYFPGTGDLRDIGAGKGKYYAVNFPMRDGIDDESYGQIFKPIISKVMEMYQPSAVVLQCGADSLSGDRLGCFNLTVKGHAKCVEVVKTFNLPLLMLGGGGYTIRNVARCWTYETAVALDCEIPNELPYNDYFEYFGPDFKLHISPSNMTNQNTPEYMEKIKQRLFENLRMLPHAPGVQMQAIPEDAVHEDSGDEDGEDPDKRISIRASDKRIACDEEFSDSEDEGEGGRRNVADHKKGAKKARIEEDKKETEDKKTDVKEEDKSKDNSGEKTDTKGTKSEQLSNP
# [5] = biological target: T1, Histone deacetylase 2; experiment: Inhibition of HDAC2 in human nuclear extract using Ac-Arg-Gly-Lys(Ac)-AMC as substrate at 1 uM incubated overnight by fluorescence based assay relative to control; format: subcellular; settings: HeLa, Nucleus
# [6] = test system: HL-60; experiment: Induction of differentiation in human HL-60 cells assessed as increase in CD11b positive cells at 1.2 uM incubated for 24 hrs by FITC staining based flow cytometry (reference value: 1.12 %); format: functional
# [7] = test system: U-937; experiment: Induction of apoptosis in human U-937 cells assessed as late apoptotic cells at 1.2 uM incubated for 48 hrs by annexin V-FITC/PI satining based flow cytometry (reference value: 4.23 %); format: functional
Structure (SMILES),Activity [1] [%],Activity [2] [%],Activity [3] [%],IC50 [4] [nM],inhibition [5] [%],Activity [6] [%],Activity [7] [%]
Nc1ccccc1NC(=O)c1ccc(NC(=O)c2n[nH]cc2NC(=O)c2c(Cl)cccc2Cl)cc1,16,0.02,4.15,98.8,100,–,–
Nc1cc(F)ccc1NC(=O)c1ccc(CNC(=O)/C=C/c2cccnc2)cc1 [TUCIDINOSTAT],–,–,–,–,–,51,6.77
